From PubChem BioAssay (NCI)
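Grown in 96-well plates, cells were treated for 48 hours with each compound at five concentrations. Insufficient inhibition: endpoint recorded as highest concentration tested. GI50 marks 50% less growth. At the TGI there is no net growth.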

Experiments:
Experiment in all cases: DTP human tumour cell line panel, 48 h
TK-10 renal = system: TK-10 renal
SN12C renal = system: SN12C renal
MALME-3M melanoma = system: MALME-3M melanoma
SK-MEL-2 melanoma = system: SK-MEL-2 melanoma
IGROV1 ovarian = system: IGROV1 ovarian
SK-MEL-28 melanoma = system: SK-MEL-28 melanoma
K-562 leukemia = system: K-562 leukemia
NCI-H522 lung = system: NCI-H522 lung

Row | SMILES | TGI (TK-10 renal) [µM] | TGI (SN12C renal) [µM] | TGI (MALME-3M melanoma) [µM] | TGI (SK-MEL-2 melanoma) [µM] | TGI (IGROV1 ovarian) [µM] | TGI (SK-MEL-28 melanoma) [µM] | TGI (K-562 leukemia) [µM] | TGI (NCI-H522 lung) [µM] | GI50 (TK-10 renal) [µM] | GI50 (SN12C renal) [µM] | GI50 (MALME-3M melanoma) [µM] | GI50 (SK-MEL-2 melanoma) [µM] | GI50 (IGROV1 ovarian) [µM] | GI50 (SK-MEL-28 melanoma) [µM] | GI50 (K-562 leukemia) [µM] | GI50 (NCI-H522 lung) [µM]
1 | O=C1c2ccccc2C2(O)c3cc4ccccc4cc3OC12O (centres undefined) | > 100 | > 100 | > 100 | > 100 | > 100 | > 100 | > 100 | > 100 |  |  |  |  |  |  |  | 
2 | CCCCCCC[CH2][Sn]1([CH2]CCCCCCC)[O]C(=O)c2cccnc2[S]1 | > 100 | > 100 | > 100 | > 100 | > 100 | > 100 | > 100 | > 100 | > 100 | > 100 | > 100 | > 100 | > 100 | > 100 | > 100 | > 100
3 | O=C(O)CSc1n[nH]c(-c2ccccc2)n1 | > 100 | > 100 | > 100 | > 100 | > 100 | > 100 | > 100 | > 100 |  |  |  |  |  |  |  | 
4 | CCC1C2C=CC(CC2)N1S(=O)(=O)c1ccc(C)cc1 (centres undefined) |  | 36.6 | 73.4 | 28.3 |  |  | > 100 | 61.5 |  |  |  |  |  |  |  | 
5 | COc1ccc(/C(=N\NC(=O)C(N)=O)C(c2ccc(OC)cc2)C2(O)C(=O)Nc3c(Cl)cccc32)cc1 (centres undefined) | > 100 | > 100 | > 100 | > 100 | > 100 | > 100 |  |  |  |  |  |  |  |  |  | 
6 | COc1ccc(NC(=O)/C(N=O)=C(/C)O)cc1 | > 100 | > 100 | > 100 | > 100 | > 100 | > 100 | > 100 |  |  |  |  |  |  |  |  | 
7 | O=C(O)[C@H](NS(=O)(=O)c1ccc2ccccc2c1)c1ccccc1 |  | > 100 | > 100 | > 100 | > 100 | > 100 | > 100 | > 100 |  |  |  |  |  |  |  | 
8 | COC1[C@@H](OC(C)=O)[C@@H](NC(=O)C(Cl)(Cl)Cl)C(I)[C@@H](N2C(=O)c3ccccc3C2=O)[C@H]1OC (some centres undefined) |  | > 100 |  |  | > 100 | > 100 | > 100 | > 100 |  |  |  |  |  |  |  | 
9 | CCOC(=O)C(C)(C)Oc1ccc2c(C)c(-c3ccc(Cl)cc3)c(=O)oc2c1 | > 100 | > 100 | > 100 | > 100 | > 100 | > 100 | > 100 |  |  |  |  |  |  |  |  | 
10 | O=C(Nc1cc(Cl)ccc1Cl)c1cc2cccc(Cl)c2oc1=O | > 100 | > 100 | > 100 |  | > 100 | > 100 | > 100 | > 100 |  |  |  |  |  |  |  | 
11 | COc1ccc2oc(-c3cccnc3)cc(=O)c2c1 |  | > 100 | > 100 | > 100 | > 100 | > 100 | > 100 |  |  |  |  |  |  |  |  | 
12 | COc1ccc(-c2cc(-c3ccccc3)c(C#N)c(=O)n2C2OC(CO)C(O)C(O)C2O)cc1 (centres undefined) | > 100 | > 100 | > 100 |  | > 100 | > 100 | > 100 | > 100 |  |  |  |  |  |  |  | 
13 | c1ccc(SC2CCSc3ccccc3C2Sc2ccccc2)cc1 (centres undefined) | > 100 | > 100 |  |  |  |  | > 100 | > 100 |  |  |  |  |  |  |  | 
14 | COc1cccc(/C=N/[N-]C(=O)c2ccncc2)c1[O-].[Cu+2].[OH3+] | > 100 | > 100 | > 100 | > 100 | > 100 | > 100 | > 100 |  | > 100 | 49.7 | > 100 | > 100 | 38.7 | > 100 | 33.6 | 
15 | O=c1n(-c2ccccc2)c(=O)n2n1C1C=CC2C2C(C1)C2(Cl)Cl (centres undefined) | > 100 | > 100 | > 100 | > 100 | > 100 |  | > 100 | > 100 |  |  |  |  |  |  |  | 
16 | CCOC(=O)NC(=O)c1cn(CCOC(=O)NCCCCCCNC(=O)OCCn2cc(C(=O)NC(=O)OCC)c(=O)[nH]c2=O)c(=O)[nH]c1=O |  | > 100 | > 100 | > 100 | > 100 | > 100 | > 100 | > 100 |  |  |  |  |  |  |  | 
17 | COC(=O)[C@]1(C)CCCC2(C)C1CC[C@H]1C=C(C)[C@H]3CCC12C3 (some centres undefined) | > 100 | > 100 | > 100 |  | > 100 | > 100 | > 100 | > 100 |  |  |  |  |  |  |  | 
18 | CCOc1ccc(N2C(=O)/C(=C/c3ccc(N(CCC#N)CCC#N)cc3)N=C2c2cc([N+](=O)[O-])ccc2Cl)cc1 | > 100 | > 100 |  | > 100 |  | 41.8 | 81.2 |  |  |  |  |  |  |  |  | 
19 | Cc1ccc(NC(=O)C2C(=O)N(c3ccc(C)c(C)c3)C(=O)C2N=N)cc1C (centres undefined) | > 100 | > 100 | > 100 | > 100 | > 100 | > 100 |  | > 100 |  |  |  |  |  |  |  | 
20 | O=C1[C@@H]2C3c4ccccc4C([C@@H]2C(=O)N1c1ccccc1)S3(=O)=O | > 100 | > 100 | > 100 | > 100 | > 100 |  | > 100 | > 100 |  |  |  |  |  |  |  | 
21 | O=C(CSc1nnc(-c2ccc(N=Cc3ccc(Cl)cc3)cc2)o1)Nc1ccc(Cl)cc1 | > 100 | > 100 | > 100 | > 100 |  | > 100 | > 100 | > 100 |  |  |  |  |  |  |  | 
